# Assay: two rounds of testing on a patient with ciclesonide administered by the oral inhalation / nasal exhalation method
# Assay type: in vivo
# Conditions: one patient; two sprays of 200 micrograms aerosolized ciclesonide, four to six oral inhalations each followed by nasal exhalation, morning and evening for two weeks; FIG. 3 device
# Excerpt: The Applicant has performed two rounds of testing on a patient suffering from post-nasal drip and upper laryngeal syndrome with an interval of two weeks between the rounds, each round consisting in administering a therapeutically effective dose of ciclesonide using the method of the present invention. […] In some embodiments, the therapeutically effective dose of ciclesonide for the treatment of upper airway cough syndrome is from 25 to 800 micrograms. Use of ciclesonide for the treatment of upper airway cough syndrome provides the advantage of avoiding fungal infections typically associated with administration of corticosteroid in the posterior nasal region, pharynx and the larynx.
# In conducting the rounds of testing, the Applicant used the embodiment of the oral delivery device of the present invention shown in FIG. 3. […] It should be noted that in some embodiments, the effective volume is greater or smaller than 375 milliliters. In operation, the patient released two sprays of aerosolized ciclesonide into the oral delivery device, each one of the sprays containing 200 micrograms of ciclesonide, and performed four to six oral inhalations, each one of the inhalations being followed by a nasal exhalation into the ambient atmosphere. Each one of the inhalations drew ambient air into the oral delivery device to sweep in an additional amount of aerosolized ciclesonide. […]
smiles,measurement,value
CC(C)C(=O)OCC(=O)[C@@]12O[C@H](C3CCCCC3)O[C@@H]1C[C@H]1[C@@H]3CCC4=CC(=O)C=C[C@]4(C)[C@H]3[C@@H](O)C[C@@]12C [ciclesonide],patient-reported symptoms of upper airway cough syndrome following each round,significant alleviation of the symptoms

# Reference: US11278684B2, “Device and method of delivering particles in the upper respiratory tract” (SERVICES MEDICAUX ARNOLD ET JOAN ZIDULKA INC., priority 2016, dated 2022)
